Results as given in PubChem BioAssay AID330 (DTP/NCI, 2004).
Values joined by “and” are separate entries in the source; they are usually repeats but may differ in a detail not shown here. Equal values may be shown once. Toxic doses and inconclusive results are not listed. Rule for the calls: active = survival T/C of 150% or more; inactive = T/C below 125% in these data.

Test system: P388 leukemia ip, CD2F1 mice, survival T/C
Test: NCI In Vivo Anticancer Drug Screen. Data for tumor model P388 Leukemia (intraperitoneal) in CD2F1 (CDF1) mice
Details: endpoint: median survival time, higher = longer survival
Procedure, shortened: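 Mice carrying the transplanted tumor received test compound or vehicle. Survival was recorded in each group, and the value is the treated-group measurement divided by that of the vehicle-treated control group.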

[1] = dose: 17.5 mg/kg/injection, schedule: Q01DX005 (ip), vehicle: Klucel (hydroxypropylcellulose) (HPC)
[2] = dose: 35.0 mg/kg/injection, schedule: Q01DX005 (ip), vehicle: Klucel (hydroxypropylcellulose) (HPC)
[3] = dose: 100.0 mg/kg/injection, schedule: Q01DX001 (ip), vehicle: Klucel (hydroxypropylcellulose) (HPC)
[4] = dose: 200.0 mg/kg/injection, schedule: Q01DX001 (ip), vehicle: Klucel (hydroxypropylcellulose) (HPC)
[5] = dose: 400.0 mg/kg/injection, schedule: Q01DX001 (ip), vehicle: Klucel (hydroxypropylcellulose) (HPC)
[6] = dose: 50.0 mg/kg/injection, schedule: Q01DX005 (ip), vehicle: saline with Tween-80
[7] = dose: 100.0 mg/kg/injection, schedule: Q01DX005 (ip), vehicle: saline with Tween-80
[8] = dose: 60.0 mg/kg/injection, schedule: Q01DX005 (ip), vehicle: saline with Tween-80
[9] = dose: 120.0 mg/kg/injection, schedule: Q01DX005 (ip), vehicle: saline with Tween-80
[10] = dose: 240.0 mg/kg/injection, schedule: Q01DX005 (ip), vehicle: saline with Tween-80
[11] = dose: 50.0 mg/kg/injection, schedule: Q01DX005 (ip), vehicle: Klucel (hydroxypropylcellulose) (HPC)
[12] = dose: 100.0 mg/kg/injection, schedule: Q01DX005 (ip), vehicle: Klucel (hydroxypropylcellulose) (HPC)
[13] = dose: 200.0 mg/kg/injection, schedule: Q01DX005 (ip), vehicle: Klucel (hydroxypropylcellulose) (HPC)
[14] = dose: 50.0 mg/kg/injection, schedule: Q01DX009 (ip), vehicle: Klucel (hydroxypropylcellulose) (HPC)
[15] = dose: 100.0 mg/kg/injection, schedule: Q01DX009 (ip), vehicle: Klucel (hydroxypropylcellulose) (HPC)
[16] = dose: 200.0 mg/kg/injection, schedule: Q01DX009 (ip), vehicle: Klucel (hydroxypropylcellulose) (HPC)
[17] = dose: 50.0 mg/kg/injection, schedule: Q01DX005 (ip), vehicle: saline
[18] = dose: 100.0 mg/kg/injection, schedule: Q01DX005 (ip), vehicle: saline
[19] = dose: 200.0 mg/kg/injection, schedule: Q01DX005 (ip), vehicle: saline
[20] = dose: 100.0 mg/kg/injection, schedule: Q01DX009 (ip), vehicle: saline with Tween-80
[21] = dose: 100.0 mg/kg/injection, schedule: Q04DX002 (ip), vehicle: saline with Tween-80
[22] = dose: 200.0 mg/kg/injection, schedule: Q04DX002 (ip), vehicle: saline with Tween-80
[23] = dose: 400.0 mg/kg/injection, schedule: Q04DX002 (ip), vehicle: saline with Tween-80
[24] = dose: 50.0 mg/kg/injection, schedule: Q01DX009 (ip), vehicle: other
[25] = dose: 100.0 mg/kg/injection, schedule: Q01DX009 (ip), vehicle: other

Measured: T/C

O=C(CCN1C(=O)c2ccccc2C1=O)Nc1ncc[nH]1
inactive: dose: 8.75 mg/kg/injection, schedule: Q01DX005 (ip), vehicle: Klucel (hydroxypropylcellulose) (HPC) 98 % of control | [1] 98 % of control | [2] 96 % of control

Cn1c(=O)nc2n(-c3ccc(Cl)c(Cl)c3)c3ccccc3nc-2c1=O
inactive: [3] 107 % of control | [4] 98 % of control | [5] 94 % of control

COc1ccc(C(=O)SCCCN=C(N)N)cc1
inactive: [6] 103 % of control | [7] 97 % of control

Fc1ccnc(F)n1
inactive: dose: 25.0 mg/kg/injection, schedule: Q04DX003 (ip), vehicle: water 100 % of control | dose: 50.0 mg/kg/injection, schedule: Q04DX003 (ip), vehicle: water 104 % of control

Cc1nc2c(cc1C#N)C(Nc1ccc(Cl)cc1)Oc1ccc([N+](=O)[O-])cc1-2 (stereo not drawn)
inactive: [8] 92 % of control | [9] 92 % of control | [10] 90 % of control

CC(C)(CBr)COP1(=O)NCC(C)(C)CO1 (stereo not drawn)
inactive: [11] 106 % of control | [12] 105 % of control | [13] 106 % of control

COc1cc(/C=N/NC(N)=O)cc(OC)c1O
inactive: [14] 105 % of control | [15] 99 % of control | [16] 98 % of control

O=C(O)CCC12CCCCC1=NC1(CCCCC1)NC2=O (stereo not drawn)
inactive: dose: 60.0 mg/kg/injection, schedule: Q01DX005 (ip), vehicle: Klucel (hydroxypropylcellulose) (HPC) 104 % of control | dose: 60.0 mg/kg/injection, schedule: Q02DX002 (ip), vehicle: Klucel (hydroxypropylcellulose) (HPC) 102 % of control | dose: 120.0 mg/kg/injection, schedule: Q01DX005 (ip), vehicle: Klucel (hydroxypropylcellulose) (HPC) 100 % of control | dose: 120.0 mg/kg/injection, schedule: Q02DX002 (ip), vehicle: Klucel (hydroxypropylcellulose) (HPC) 97 % of control | dose: 240.0 mg/kg/injection, schedule: Q01DX005 (ip), vehicle: Klucel (hydroxypropylcellulose) (HPC) 100 % of control | dose: 240.0 mg/kg/injection, schedule: Q02DX002 (ip), vehicle: Klucel (hydroxypropylcellulose) (HPC) 103 % of control

NNC(=O)C(O)C(O)C(O)C(O)CO (stereo not drawn)
inactive: [17] 92 % of control | [18] 100 % of control | [19] 100 % of control

CCCS/C(N)=N/N=C/c1ccc([N+](=O)[O-])o1
inactive: dose: 6.25 mg/kg/injection, schedule: Q01DX009 (ip), vehicle: suspension in saline 102 % of control | dose: 12.5 mg/kg/injection, schedule: Q01DX009 (ip), vehicle: suspension in saline 92 % of control | dose: 25.0 mg/kg/injection, schedule: Q01DX009 (ip), vehicle: suspension in saline 91 % of control | dose: 50.0 mg/kg/injection, schedule: Q01DX009 (ip), vehicle: suspension in saline 109 % of control

c1ccc(CSCCSCc2ccccn2)nc1
inactive: [11] 95 % of control | [12] 109 % of control | [13] 103 % of control

C=C(C)C(=O)OC1CC2=CC(CC3(C)OC3C3OC(=O)C(=C)C13)OC2=O (stereo not drawn)
inactive: dose: 2.25 mg/kg/injection, schedule: Q01DX009 (ip), vehicle: Klucel (hydroxypropylcellulose) (HPC) 100 % of control | dose: 2.3 mg/kg/injection, schedule: Q01DX009 (ip), vehicle: Klucel (hydroxypropylcellulose) (HPC) 103 % of control | dose: 4.5 mg/kg/injection, schedule: Q01DX009 (ip), vehicle: Klucel (hydroxypropylcellulose) (HPC) 100 % of control and 97 % of control | dose: 9.0 mg/kg/injection, schedule: Q01DX009 (ip), vehicle: Klucel (hydroxypropylcellulose) (HPC) 100 % of control and 111 % of control | dose: 18.0 mg/kg/injection, schedule: Q01DX009 (ip), vehicle: Klucel (hydroxypropylcellulose) (HPC) 114 % of control and 115 % of control

O=[n+]1cc2ccccn2cc1-c1ccccc1
inactive: [20] 90 % of control | dose: 200.0 mg/kg/injection, schedule: Q01DX009 (ip), vehicle: saline with Tween-80 95 % of control | dose: 400.0 mg/kg/injection, schedule: Q01DX009 (ip), vehicle: saline with Tween-80 118 % of control

CNCC(=O)c1ccc(O)c(O)c1N=O
inactive: [21] 114 % of control | [22] 108 % of control | [23] 108 % of control

CCOC(=O)NN(C(=O)OCC)C1CCN=C1C(=O)OC (stereo not drawn)
inactive: [17] 98 % of control | [18] 88 % of control | [19] 98 % of control

O=C(O)C1CCC=CCC1
inactive: [24] 100 % of control | [25] 104 % of control | dose: 200.0 mg/kg/injection, schedule: Q01DX009 (ip), vehicle: other 100 % of control

COc1cc2ccnc(Cc3ccc4c(c3)OCO4)c2cc1OC
inactive: dose: 50.0 mg/kg/injection, schedule: Q01DX009 (ip), vehicle: saline 115 % of control | dose: 100.0 mg/kg/injection, schedule: Q01DX009 (ip), vehicle: saline 95 % of control | dose: 100.0 mg/kg/injection, schedule: Q04DX003 (ip), vehicle: saline 100 % of control | dose: 200.0 mg/kg/injection, schedule: Q01DX009 (ip), vehicle: saline 100 % of control | dose: 200.0 mg/kg/injection, schedule: Q04DX003 (ip), vehicle: saline 100 % of control | dose: 400.0 mg/kg/injection, schedule: Q04DX003 (ip), vehicle: saline 95 % of control

O=C1CC(CO)CC2c3[nH]c4ccccc4c3CCN12 (stereo not drawn)
inactive: [1] 108 % of control | [2] 91 % of control | dose: 70.0 mg/kg/injection, schedule: Q01DX005 (ip), vehicle: Klucel (hydroxypropylcellulose) (HPC) 97 % of control

CC(C)NC(=O)c1ccc(CN(O)Cc2ccc(C(=O)NC(C)C)cc2)cc1
inactive: dose: 25.0 mg/kg/injection, schedule: Q01DX009 (ip), vehicle: other 99 % of control | [24] 99 % of control | [25] 88 % of control | dose: 400.0 mg/kg/injection, schedule: Q01DX009 (ip), vehicle: other 97 % of control

C=C(C)c1nc(NCC)nc(NCC)n1
inactive: [3] 94 % of control | [4] 90 % of control | [5] 92 % of control

C1CSCN1
inactive: [17] 107 % of control | [18] 100 % of control | [19] 115 % of control

ClCc1nnc2cccc(Cl)n12
inactive: [3] 102 % of control | [4] 96 % of control | [5] 99 % of control

[CH3][Sb]([CH3])[O][Sb]([CH3])[CH3]
inactive: dose: 60.0 mg/kg/injection, schedule: Q01DX005 (ip), vehicle: saline 110 % of control | dose: 120.0 mg/kg/injection, schedule: Q01DX005 (ip), vehicle: saline 111 % of control | dose: 240.0 mg/kg/injection, schedule: Q01DX005 (ip), vehicle: saline 107 % of control

COc1ccc(C2CC(c3cc(C)cc(Br)c3O)=NO2)cc1 (stereo not drawn)
inactive: [21] 93 % of control | [22] 88 % of control | [23] 92 % of control

N#C/C(C(N)=O)=C1/C(=O)Nc2ccccc21
inactive: [11] 103 % of control | [12] 98 % of control | [13] 94 % of control

Cc1ccccc1CC(C)c1ccccc1 (stereo not drawn)
inactive: dose: 50.0 mg/kg/injection, schedule: Q01DX009 (ip), vehicle: saline with Tween-80 100 % of control | [20] 123 % of control

Cc1ccnc(NS(=O)(=O)c2ccc(NCc3c4ccccc4nc4cc(Cl)ccc34)cc2)n1
inactive: [8] 99 % of control | [9] 90 % of control | [10] 86 % of control

COC(=O)c1[nH]c(=O)c(C#N)c(C(=O)OC)c1C(=O)c1ccncc1
inactive: [6] 95 % of control | [7] 92 % of control

CCCC(C)C1(CC(C)O)C(=O)NC(=O)NC1=O (stereo not drawn)
inactive: [14] 104 % of control | [15] 104 % of control | [16] 100 % of control
